“Also recorded” adds a separate entry of the source.
T1: rM3Ds (Rattus norvegicus, UniProt P08483, A177S/A238G/A489L/DEL261-437/DEL441-478/E258S/I253V/I483M/INS256[…]/K178L/K182A/K255R/K484R/K486H/L173F/L482A/M480V/R171S/R176Q/R179M/S481M/T174R/T181R/T257A/Y148C)
T1 sequence (P08483 with tags, fused parts or gaps Y148C/R171S/L173F/T174R/R176Q/A177S/K178L/R179M/T181R/K182A/A238G/I253V/K255R/INS256[…]/T257A/E258S/DEL261-437/DEL441-478/M480V/S481M/L482A/I483M/K484R/K486H/A489L): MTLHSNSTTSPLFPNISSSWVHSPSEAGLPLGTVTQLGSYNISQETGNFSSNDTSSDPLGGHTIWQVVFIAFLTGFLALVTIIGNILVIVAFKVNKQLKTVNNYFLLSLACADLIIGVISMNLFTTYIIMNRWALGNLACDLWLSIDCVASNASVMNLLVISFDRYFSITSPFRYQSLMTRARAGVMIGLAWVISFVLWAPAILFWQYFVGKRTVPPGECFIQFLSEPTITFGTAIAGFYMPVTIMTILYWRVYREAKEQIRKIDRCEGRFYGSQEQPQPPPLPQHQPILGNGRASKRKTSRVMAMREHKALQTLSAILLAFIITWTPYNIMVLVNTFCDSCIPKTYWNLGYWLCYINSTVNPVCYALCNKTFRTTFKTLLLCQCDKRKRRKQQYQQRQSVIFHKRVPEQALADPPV

B1: AAV8R12: AAV8R capsid mutant V183E + N411S; Cap SEQ ID NO: 59 (protein)
chain: MAADGYLPDWLEDNLSEGIREWWALKPGAPKPKANQQKQDDGRGLVLPGYKYLGPFNGLDKGEPVNAADAAALEHDKAYDQQLQAGDNPYLRYNHADAEFQERLQEDTSFGGNLGRAVFQAKKRVLEPLGLVEEGAKTAPGKKRPVEPSPQRSPDSSTGIGKKGQQPARKRLNFGQTGDSESEPDPQPLGEPPAAPSGVGPNTMAAGGGAPMADNNEGADGVGSSSGNWHCDSTWLGDRVITTSTRTWALPTYNNHLYKQISNGTSGGATNDNTYFGYSTPWGYFDFNRFHCHFSPRDWQRLINNNWGFRPKRLSFKLFNIQVKEVTQNEGTKTIANNLTSTIQVFTDSEYQLPYVLGSAHQGCLPPFPADVFMIPQYGYLTLNDGSQAVGRSSFYCLEYFPSQMLRTGNSFQFTYTFEDVPFHSSYAHSQSLDRLMNPLIDQYLYYLSRTQTTGGTANTQTLGFSQGGPNTMANQAKNWLPGPCYRQQRVSTTTGQNNNSNFAWTAGTKYHLNGRNSLANPGIAMATHKDDEERFFPSNGILIFGKQNAARDNADYSDVMLTSEEEIKTTNPVATEEYGIVADNLQRGNLADQDYTKTARQAATADVNSQGALPGMVWQNRDVYLQGPIWAKIPHTDGNFHPSPLMGGFGLKHPPPQILIKNTPVPADPPTTFNQSKLNSFITQYSTGQVSVEIEWELQKENSKRWNPEIQYTSNYYKSINVDFAVNTEGVYSEPRPIGTRYLTRNL

Tests used:
rM3Ds [1] = biological target: T1, rM3Ds; assay: In vivo electrophysiological recording in caudate/putamen of anesthetized macaques, rM3Ds; parameters: 2A-EYFP (C); expressed in transfected cells; host or cells: neurons (striatal D1-MSNs) of mice or cynomolgus macaques, transduced in vivo by nigral AAV8R12-G88P7-rM3Ds-2A-EYFP; conditions: MPP+ lesioned macaques, CNO 36 cells, DCZ 31 cells
Experimental: • Electrophysiological recording was performed through a recording chamber while the monkey was anesthetized. Neural responses were recorded by a 16-channel linear probe (Plexon Inc, Uprobe) driven by a mechanical microdrive (Alpha Omega, FlexMT). Signals were passed through a head stage (Plexon Inc, HST/16V-G20 LN) and then split and filtered between 300 Hz and 5 kHz to identify spiking activity with an amplifier system (Plexon Inc, OmniPlex). Detected spikes were then sorted by commercially available software (Plexon Inc, Offline Sorter) for further analysis. To quantify the effect of CNO/DCZ injection, neural activity was recorded for 60 minutes following CNO/DCZ injection. The response time-course for each channel was obtained by counting the spikes within every 10-minute window and then normalizing to the maximal.
To determine the effect of CNO/DCZ injection on the direction of signal change, we performed Pearson correlation between neural responses and time using the ‘corr’ function in Matlab, which generates the correlation coefficient ‘r’ and significant level ‘p’. A neuron was considered to have “Increased” activity when r>0 and p<0.05; and considered to have “Decreased” activity when r<0 and p<0.05. Otherwise, neurons were considered to be “Unchanged” in their neural activities. The responses of all increased neurons were then averaged after being normalized by the maximal response (Crowe et al., 2014; Dai and Wang, 2018; Hirokawa et al., 2019) following CNO/DCZ injection, and then plotted as a function of time to generate the normalized population response.
To enable in-vivo verification of the strategy via an opto-tagging approach, AAV virus encoding opsin ChR2 (AAV9-EF1α-DIO-ChR2-EYFP) was injected into the striatum with simultaneous nigral infusion of a retrograde AAV encoding Cre and rM3Ds (AAV8R12-G88P7-HA-rM3Ds-2A-Cre). A total volume of 27 μl (3 μl×9 sites) and 30 μl (3 μl×10 sites) were injected in the SNr and the striatum, respectively. A recording chamber was implanted above the striatum to allow optical stimulation and electrophysiological recording.
Optogenetic verification was conducted six weeks after virus injections. A 16-channel linear probe with an embedded optic fiber (Plexon Inc., Uprobe) was used to deliver light stimulation and record neural responses. A mechanical Microdrive (FlexMT, Alpha Omega, Nazareth, Israel) was used to mount and drive the probe. A blue laser (473 nm, Changchun New Industries Tech, MBL-III-473) was used to generate light stimulation, which was controlled by a DAQ board (National Instruments, PCIe-6321) through the MonkeyLogic toolbox (NIMH version).
Light pulses of 40 Hz that last for 500 ms were used to probe neurons' responses to optical stimulation. […] Responses from these optically identified cells were grouped to generate the normalized population response as a function of time.

rM3Ds [2] = biological target: T1, rM3Ds
Experimental: Monkeys were continuously monitored by veterinarians after lesion.
Dyskinesia score criteria were: 0: Absent. 1: Mild, fleeting, present <30% of the observation period.
Each block included ten continuous trials.
Customized surface EMG electrodes were used for EMG recordings. […] The recording procedure was conducted immediately after DCZ infusions.

[3] = Locomotion test in naïve macaques (no viral injection); format: in vivo; conditions: DCZ 0.3 mg/kg i.m.
[4] = CSF concentration of DCZ by LC-MS; conditions: 24 hours after drug infusion, 0.3 mg/kg i.m.
[5] = Blood test of liver- and kidney-related factors during DCZ treatment; format: in vivo, macaques; conditions: n=3 monkeys
From the text: FIG. 36A-36F depict effects of D1-MSN activation on dyskinesia-like behavior and health state-related blood factors in parkinsonian macaques. FIG. 36A illustrates quantitation of dyskinesia score at 2 months, 4 months, and 8 months after treatment with DCZ. n=3 monkeys per group.
Intriguingly, many of the symptoms were greatly reversed after systemic deschloroclozapine (DCZ) administration. DCZ is a potent brain-penetrable agonist for rM3Ds with reduced off-targeting binding compared to CNO, and was administered to activate the DREADD system in the macaque brain.

[6] = test system: MSNs in nucleus accumbens; assay: Retrograde labeling of accumbal MSNs after delivery into ventral pallidum or lateral hypothalamus; format: in vivo, mice; conditions: stereotaxic delivery into ventral pallidum or lateral hypothalamus
[7] = test system: striatonigral projection neurons (D1 MSNs); assay: Retrograde labeling of striatal MSNs after AAV injection into the SNr, EYFP+ cell counting; format: in vivo, mice
Experimental: To improve efficiency, multiple rounds of mutations of AAV capsids were performed on a series of different serotypes. Mutations were introduced at three sites in the AAV8 capsid protein to make AAV8R, including N385D, insertion of […] (SEQ ID NO: 31) at position 588, and TS711-7121N. Two additional mutations of V183E and N41 IS were incorporated into the AAV8R12 capsid protein (FIG. 1A). The labeling pattern of the AAV8R12 capsid and G88 promoter combination was determined.
was inserted at the N587-R588 position; two other point mutations of the AAV2 Cap protein were made to develop rAAV2-retro. Similar mutations were then placed at equivalent positions for four other AAV serotypes (FIGS. 1A-1C and 25, TABLE 1), AAV1/5/6/8 (FIG. 1A). […] When administered into the SNr, 4.86±0.22 times EYFP positive MSNs in mice infected by AAV8R-hSyn-EYFP were observed as compared to those infected by rAAV2-retro-hSyn-EYFP (FIG. 2A-2C).
Baseline infectivity of rAAV2-retro was approximately 0.2±0.03×10^4 cells per striatal hemisphere (using a hSyn promoter) (TABLE 2). […] Compared to the current standard retrograde AAV, rAAV2-retro, AAV8R12 labeled 7.72±0.78-times more MSNs after nigral delivery (FIG. 2B-2C, TABLE 1). […] The AAV8R12 was generated using the AAV8R plasmid as a template.
Mice were anesthetized with sodium pentobarbital (Nembutal; 80 mg/kg, i.p.), and then placed into a stereotaxic device (KOPF). Eye cream was applied on both corneas to avoid dehydration. The skull above the targeted areas was thinned with a dental drill and carefully removed. Injections were conducted with a 10 μL syringe connected to a 33-Gauge needle (Neuros; Hamilton), using a microsyringe pump (Legato 130, KD Scientific). A total volume of 200 nL virus was injected into the SNr at a speed of 20 nL/min. The coordinates for the SNr were 3.4 mm posterior, 1.3 mm lateral, 4.8 mm ventral to the bregma.
Images were acquired using a confocal microscope (Carl Zeiss, LSM880) and an Axiolmager. Z1 microscope with apotome (Carl Zeiss). Brain structures were identified microscopically and in digital photos using a mouse brain atlas. To analyze the number of EYFP+ cells in the striatum, slices from rostral to caudal striatum were used. Every sixth section was analyzed, and numbers of EYFP+ cells were multiplied by six to acquire the approximate total number and mean number of cells per animal. Images were processed using ImageJ (NIH, USA), and final quantifications were independently performed manually by two blinded experimenters.

| Molecule | cells in caudate/putamen activated (FIG. 15G) (rM3Ds [1]; saline 17.9%) [%] | cells in caudate/putamen inactivated (FIG. 15G) (rM3Ds [1]; saline 33.4%) [%] | cells in caudate/putamen unchanged (FIG. 15G) (rM3Ds [1]; saline 48.7%) [%] | alleviation of parkinsonian symptoms during long-term treatment (rM3Ds [2]; DCZ 0.3 mg/kg every other day) | reversal of parkinsonian symptoms (PD score) (rM3Ds [2]; MPP+ macaques with AAV8R12-G88P7-rM3Ds-2A-EYFP, DCZ 0.3 mg/kg i.m., L-Dopa/benserazide 20/5 mg/kg/day oral) | motor skills (hand to mouth movement) (rM3Ds [2]; MPP+ macaques, DCZ treatment) | tremor (EMG) (rM3Ds [2]; MPP+ macaques, DCZ treatment) | dyskinesia-like behaviors (dyskinesia score) (rM3Ds [2]; MPP+ macaques, long-term treatment) | window of efficacy after each dose (alleviating symptoms after drug administration) (rM3Ds [2]; after the drug reached steady-state efficacy (FIG. 24C)) | speed of reversal of symptoms, DCZ compared with levodopa (rM3Ds [2]; initial phase of drug administration) | duration of effect (FIG. 18C) (rM3Ds [2]; n=3 monkeys) | effect of an extended period (4 months) of prior L-Dopa administration on DCZ treatment (rM3Ds [2]; one month washout, then DCZ 2 months) | motor-related behaviors in naïve monkeys [3] | DCZ level in cerebrospinal fluid [4] | blood levels of common liver- and kidney-related factors (ALT, AST, GGT, CREA, BUN) [5] | labeling of MSNs in nucleus accumbens [6] | Labeling Efficiency in Striatonigral Pathway ([7]; AAV8R capsid mutants, numbers of labeled neurons per animal) | EYFP positive / labeled MSNs compared to rAAV2-retro ([7]; after nigral delivery, hSyn-EYFP) [times] | labeled striatonigral projection neurons (FIG. 2C), mean±SEM ([7]; capsid comparison, injection into SNr of wild type mice, n=3 mice per group) | Mean (AAVs with capsid and promoter) ([7]; labeled cells after nigral injection in mice, b188 refers to it as cells per striatal hemisphere, SD and SEM in own columns) |
| --- | --- | --- | --- | --- | --- | --- | --- | --- | --- | --- | --- | --- | --- | --- | --- | --- | --- | --- | --- | --- |
| CN1CCN(C2=Nc3ccccc3Nc3ccccc32)CC1 [DCZ, Deschloroclozapine] | 41.9 | 9.7 | 48.4 | consistent during an 8-month continuous treatment | reversal of canonical parkinsonian symptoms in all tested monkeys; also recorded: comparable efficiency to L-Dopa | significant recovery of motor skills; also recorded: partially restored this motor skill | great reduced or even eliminated; also recorded: removed | dyskinesia-free | at least 24 hours | faster reversal of symptoms than levodopa; also recorded: reached stable efficacy faster than L-Dopa | over 24 hr | did not affect the efficacy of DCZ treatment or the absence of dyskinesia | did not alter motor-related behaviors in naïve monkeys | no detectable levels | remained stable |  |  |  |  |  |
| B1 |  |  |  |  |  |  |  |  |  |  |  |  |  |  |  | robust labeling of MSNs | +++ (10k-25k) | 7.72±0.78 | 16026±1654 | 16026 |

Reference: patent US20250382346A1, “NEURONAL PROMOTERS AND USES THEREOF” (priority 2023, published 2025)
